Literature values as cited in patent US20230219928A1, “PREPARATION METHOD FOR AROMATIC ETHER COMPOUND” (Jiangsu Yahong Meditech Co., Ltd., priority 2020, published 2023).

Columns and labels:
[1] = human, phase II clinical trial conducted by Jiangsu Yahong Meditech in China
[2] = background statement

- biological half-life [1]: 1.22-1.44 hours
- water solubility [2]: very low
SMILES: O=[N+]([O-])c1ccc(O)c2ncccc12 [nitroxoline]
